Measured values from patent publication US10533010B2, “Substituted indole Mcl-1 inhibitors” (Vanderbilt University, priority 2014, dated 2020).
Read-outs that look alike come from different tables or passages of the source.

Biological target: recombinant Mcl-1 (residues 172-327) (Homo sapiens (Human), UniProt Q07820)
Experiment: Fluorescence polarization anisotropy competition assay (FITC-Bak or FITC-Bim BH3 peptide) with Mcl-1
Type: binding
Conditions: Table 2, FITC-Bak or FITC-Bim peptide competition, Ki converted from IC50, read-out: Ki for Inhibition of Mcl-1

Sequence of recombinant Mcl-1 (residues 172-327) (Q07820 172-327): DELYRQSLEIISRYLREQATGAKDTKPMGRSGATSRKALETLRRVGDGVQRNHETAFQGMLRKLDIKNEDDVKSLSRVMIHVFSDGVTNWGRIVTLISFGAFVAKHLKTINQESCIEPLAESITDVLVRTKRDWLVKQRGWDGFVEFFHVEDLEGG

Cc1cc(OCCCc2c3n(c4c(-c5c(C)nn(C)c5C)c(Cl)ccc24)CCC(C)N(Cc2ccc(C(=O)O)cn2)C3=O)cc(C)c1Cl (stereo not drawn) [I-124, 6-((8-chloro-11-(3-(4-chloro-3,5-dimethylphenoxy)propyl)-3-methyl-1-oxo-7-(1,3,5-trimethyl-1H-pyrazol-4-yl)-4,5-dihydro-1H-[1,4]diazepino[1,2-a]indol-2(3H)-yl)methyl)nicotinic acid] was tested, and the Ki (Ki bins given in nM) was < 50 nM.

In the case of Cc1cc(OCCCc2c3n(c4c(-c5c(C)nn(C)c5C)c(Cl)ccc24)C[C@H](C)N(Cc2ccc(C(=O)O)o2)C3=O)cc(C)c1Cl [I-138, (S)-5-((7-chloro-10-(3-(4-chloro-3,5-dimethylphenoxy)propyl)-3-methyl-1-oxo-6-(1,3,5-trimethyl-1H-pyrazol-4-yl)-3,4-dihydropyrazino[1,2-a]indol-2(1H)-yl)methyl)furan-2-carboxylic acid], the Ki (Ki bins given in nM) was < 50 nM.

For Cc1cc(OCCCc2c3n(c4c(-c5c(C)nn(C)c5C)c(Cl)ccc24)CCN(c2ccc(C(=O)O)cc2)C3=O)cc(C)c1Cl [I-176, 4-(7-chloro-10-(3-(4-chloro-3,5-dimethylphenoxy)propyl)-1-oxo-6-(1,3,5-trimethyl-1H-pyrazol-4-yl)-3,4-dihydropyrazino[1,2-a]indol-2(1H)-yl)benzoic acid], the Ki (Ki bins given in nM) was < 50 nM.

With Cc1cc(OCCCc2c3n(c4c(-c5c(C)nn(C)c5C)c(Cl)ccc24)[C@@H](C)CN(Cc2cccc(C(=O)O)c2)C3=O)cc(C)c1Cl [I-151, (S)-3-((7-chloro-10-(3-(4-chloro-3,5-dimethylphenoxy)propyl)-4-methyl-1-oxo-6-(1,3,5-trimethyl-1H-pyrazol-4-yl)-3,4-dihydropyrazino[1,2-a]indol-2(1H)-yl)methyl)benzoic acid] the Ki (Ki bins given in nM) was < 50 nM.

Compound Cc1cc(CNC(=O)c2[nH]c3c(-c4c(C)nn(C)c4C)cccc3c2CCCOc2cc(C)c(Cl)c(C)c2)cc(OC(F)(F)F)c1 [I-265, 3-(3-(4-chloro-3,5-dimethylphenoxy)propyl)-N-(3-methyl-5-(trifluoromethoxy)benzyl)-7-(1,3,5-trimethyl-1H-pyrazol-4-yl)-1H-indole-2-carboxamide] has a Ki (Ki bins given in μM) of 1000 to 9990 nM.

With Cc1cc(OCCCc2c(C(=O)NCc3ccc(C(=O)O)o3)[nH]c3c(-c4c(C)n[nH]c4C)cccc23)cc(C)c1Cl [I-62, 5-((3-(3-(4-chloro-3,5-dimethylphenoxy)propyl)-7-(3,5-dimethyl-1H-pyrazol-4-yl)-1H-indole-2-carboxamido)methyl)furan-2-carboxylic acid] the Ki (Ki bins given in nM) was < 50 nM.

Cc1cc(OCCCc2c(C(=O)Nc3cc(Br)cc(C(=O)O)c3)[nH]c3c(-c4c(C)nn(C)c4C)c(Cl)ccc23)cc(C)c1Cl [I-217, 3-bromo-5-(6-chloro-3-(3-(4-chloro-3,5-dimethylphenoxy)propyl)-7-(1,3,5-trimethyl-1H-pyrazol-4-yl)-1H-indole-2-carboxamido)benzoic acid] was tested, and the Ki (Ki bins given in nM) was < 50 nM.

With Cc1cc(OCCCc2c3n(c4c(-c5c(C)nn(C)c5C)c(Cl)ccc24)CCCN(c2cc(C(=O)O)cc4nnn(C)c24)C3=O)cc(C)c1Cl [I-362, 7-(8-chloro-11-(3-(4-chloro-3,5-dimethylphenoxy)propyl)-1-oxo-7-(1,3,5-trimethyl-1H-pyrazol-4-yl)-4,5-dihydro-1H-[1,4]diazepino[1,2-a]indol-2(3H)-yl)-1-methyl-1H-benzo[d][1,2,3]triazole-5-carboxylic acid] the Ki (Ki bins given in nM) was < 50 nM.

Cc1cc(OCCCc2c(C(=O)NCc3cccc(C(=O)O)c3)n(C)c3c(-c4c(C)nn(C)c4C)cccc23)cc(C)c1Cl [I-33, 3-((3-(3-(4-chloro-3,5-dimethylphenoxy)propyl)-1-methyl-7-(1,3,5-trimethyl-1H-pyrazol-4-yl)-1H-indole-2-carboxamido)methyl)benzoic acid] gave a Ki (Ki bins given in nM) of 51 to 100 nM.

In the case of Cc1cc(OCCCc2c3n(c4c(-c5c(C)nn(C)c5C)c(Cl)ccc24)CCCN(c2cc(C(=O)O)cc4c2ccn4Cc2cccnc2)C3=O)cc(C)c1Cl [I-242, 4-(8-chloro-11-(3-(4-chloro-3,5-dimethylphenoxy)propyl)-1-oxo-7-(1,3,5-trimethyl-1H-pyrazol-4-yl)-4,5-dihydro-1H-[1,4]diazepino[1,2-a]indol-2(3H)-yl)-1-(pyridin-3-ylmethyl)-1H-indole-6-carboxylic acid], the Ki (Ki bins given in nM) was < 50 nM.

Cc1cc(OCCCc2c3n(c4c(-c5c(C)nn(C)c5C)c(Cl)ccc24)CCCN(c2cc(Cl)cc(C(=O)O)c2)C3=O)cc(C)c1Cl [I-221, 3-chloro-5-(8-chloro-11-(3-(4-chloro-3,5-dimethylphenoxy)propyl)-1-oxo-7-(1,3,5-trimethyl-1H-pyrazol-4-yl)-4,5-dihydro-1H-[1,4]diazepino[1,2-a]indol-2(3H)-yl)benzoic acid] was tested, and the Ki (Ki bins given in nM) was < 50 nM.

With Cc1cc(OCCCc2c3n(c4c(-c5c(C)nn(C)c5C)c(Cl)ccc24)CCCN(Cc2cc(C(=O)O)cc(Cl)n2)C3=O)cc(C)c1Cl [I-349, 2-chloro-6-((8-chloro-1-(3-(4-chloro-3,5-dimethylphenoxy)propyl)-1-oxo-7-(1,3,5-trimethyl-1H-pyrazol-4-yl)-4,5-dihydro-1H-[1,4]diazepino[1,2-a]indol-2(3H)-yl)methyl)isonicotinic acid] the Ki (Ki bins given in nM) was < 50 nM.

In the case of Cc1cc(OCCCc2c(C(=O)NCc3cccc(C(=O)NS(=O)(=O)c4ccccc4C#N)c3)[nH]c3c(-c4c(C)n[nH]c4C)cccc23)cc(C)c1Cl [I-26, 3-(3-(4-chloro-3,5-dimethylphenoxy)propyl)-N-(3-(((2-cyanophenyl)sulfonyl)carbamoyl)benzyl)-7-(3,5-dimethyl-1H-pyrazol-4-yl)-1H-indole-2-carboxamide], the Ki (Ki bins given in nM) was < 50 nM.

With Cc1cc(OCCCc2c3n(c4c(-c5c(C)nn(C)c5C)c(Cl)ccc24)CCN(Cc2ccc(C(=O)O)cc2)C3=O)cc(C)c1Cl [I-140, 4-((7-chloro-10-(3-(4-chloro-3,5-dimethylphenoxy)propyl)-1-oxo-6-(1,3,5-trimethyl-1H-pyrazol-4-yl)-3,4-dihydropyrazino[1,2-a]indol-2(1H)-yl)methyl)benzoic acid] the Ki (Ki bins given in nM) was < 50 nM.

In the case of CC[C@H](C)[C@H](NC(=O)c1ccc(CNC(=O)c2[nH]c3c(-c4c(C)nn(C)c4C)cccc3c2CCCOc2cc(C)c(Cl)c(C)c2)o1)C(=O)O [I-270, (5-((3-(3-(4-chloro-3,5-dimethylphenoxy)propyl)-7-(1,3,5-trimethyl-1H-pyrazol-4-yl)-1H-indole-2-carboxamido)methyl)furan-2-carbonyl)-L-isoleucine], the Ki (Ki bins given in nM) was < 50 nM.

Cc1cc(OCCCc2c(C(=O)Nc3cccc(C(=O)O)c3)[nH]c3c(-c4c(C)nn(C)c4C)cccc23)cc(C)c1Cl [I-196, 3-(3-(3-(4-chloro-3,5-dimethylphenoxy)propyl)-7-(1,3,5-trimethyl-1H-pyrazol-4-yl)-1H-indole-2-carboxamido)benzoic acid] was tested, and the Ki (Ki bins given in nM) was < 50 nM.

For Cc1cc(OCCCc2c(C(=O)Nc3cccc(C(=O)O)c3)[nH]c3c(-c4c(C)nn(CCN5CCOCC5)c4C)c(Cl)ccc23)cc(C)c1Cl [I-191, 3-(6-chloro-3-(3-(4-chloro-3,5-dimethylphenoxy)propyl)-7-(3,5-dimethyl-1-(2-morpholinoethyl)-1H-pyrazol-4-yl)-1H-indole-2-carboxamido)benzoic acid], the Ki (Ki bins given in nM) was < 50 nM.

In the case of Cc1cc(OCCCc2c3n(c4c(-c5c(C)nn(C)c5C)c(Cl)ccc24)CCCN(c2cc(C(=O)O)cc(C(F)(F)F)c2)C3=O)cc(C)c1Cl [I-222, 3-(8-chloro-11-(3-(4-chloro-3,5-dimethylphenoxy)propyl)-1-oxo-7-(1,3,5-trimethyl-1H-pyrazol-4-yl)-4,5-dihydro-1H-[1,4]diazepino[1,2-a]indol-2(3H)-yl)-5-(trifluoromethyl)benzoic acid], the Ki (Ki bins given in nM) was < 50 nM.

Cc1cc(OCCCc2c3n(c4c(-c5c(C)nn(C)c5C)c(Cl)ccc24)C[C@@H](C)N(c2cc(C(=O)O)cc4c2ccn4C)C3=O)cc(C)c1Cl [I-159, (R)-4-(7-chloro-10-(3-(4-chloro-3,5-dimethylphenoxy)propyl)-3-methyl-1-oxo-6-(1,3,5-trimethyl-1H-pyrazol-4-yl)-3,4-dihydropyrazino[1,2-a]indol-2(1H)-yl)-1-methyl-1H-indole-6-carboxylic acid] was tested, and the Ki (Ki bins given in nM) was < 50 nM.

Cc1cc(OCCCc2c3n(c4c(-c5c(C)nn(C)c5C)c(Cl)ccc24)CCCN(c2cccc4c2ccn4CC(=O)O)C3=O)cc(C)c1Cl [I-348, 2-(4-(8-chloro-11-(3-(4-chloro-3,5-dimethylphenoxy)propyl)-1-oxo-7-(1,3,5-trimethyl-1H-pyrazol-4-yl)-4,5-dihydro-1H-[1,4]diazepino[1,2-a]indol-2(3H)-yl)-1H-indol-1-yl)acetic acid] was tested, and the Ki (Ki bins given in nM) was < 50 nM.

With Cc1cc(OCCCc2c(C(=O)N3CC(NC(=O)C(=O)O)C3)[nH]c3c(-c4c(C)nn(C)c4C)c(Cl)ccc23)cc(C)c1Cl [I-323, 2-((1-(6-chloro-3-(3-(4-chloro-3,5-dimethylphenoxy)propyl)-7-(1,3,5-trimethyl-1H-pyrazol-4-yl)-1H-indole-2-carbonyl)azetidin-3-yl)amino)-2-oxoacetic acid] the Ki (Ki bins given in nM) was < 50 nM.

For Cc1cc(OCCCc2c3n(c4c(-c5c(C)nn(C)c5C)c(Cl)ccc24)[C@H](C)CN(Cc2ccc(C(=O)O)cc2)C3=O)cc(C)c1Cl [I-154, (R)-4-((7-chloro-10-(3-(4-chloro-3,5-dimethylphenoxy)propyl)-4-methyl-1-oxo-6-(1,3,5-trimethyl-1H-pyrazol-4-yl)-3,4-dihydropyrazino[1,2-a]indol-2(1H)-yl)methyl)benzoic acid], the Ki (Ki bins given in nM) was < 50 nM.

For Cc1cc(OCCCc2c3n(c4c(-c5c(C)nn(C)c5C)c(Cl)ccc24)CC(C)CNC3=O)cc(C)c1Cl (stereo not drawn) [I-115, 8-chloro-1-(3-(4-chloro-3,5-dimethylphenoxy)propyl)-4-methyl-7-(1,3,5-trimethyl-1H-pyrazol-4-yl)-2,3,4,5-tetrahydro-1H-[1,4]diazepino[1,2-a]indol-1-one], the Ki (Ki bins given in nM) was < 50 nM.

With Cc1cc(OCCCc2c(C(=O)NCc3ccc(C(=O)O)cc3)n(CCN3CCOCC3)c3c(-c4c(C)nn(C)c4C)c(Cl)ccc23)cc(C)c1Cl [I-373, 4-((6-chloro-3-(3-(4-chloro-3,5-dimethylphenoxy)propyl)-1-(2-morpholinoethyl)-7-(1,3,5-trimethyl-1H-pyrazol-4-yl)-1H-indole-2-carboxamido)methyl)benzoic acid] the Ki (Ki bins given in nM) was < 50 nM.
